Experiment: xn = mol fraction of the nth substance listed
Settings: 101 kPa, Liquid; for viscosity: Capillary tube (Ostwald / Ubbelohde) method; for mass density: Vibrating tube method

CCCCOCCOCCO [3,6-dioxa-1-decanol] + O
Settings	mass density, 283.15 K [kg/m3]	mass density, 293.15 K [kg/m3]	mass density, 303.15 K [kg/m3]	mass density, 313.15 K [kg/m3]	mass density, 323.15 K [kg/m3]	viscosity, 283.15 K [mPa·s]	viscosity, 293.15 K [mPa·s]	viscosity, 303.15 K [mPa·s]	viscosity, 313.15 K [mPa·s]	viscosity, 323.15 K [mPa·s]
x1 = 0.00199	1000.2	998.59	995.87	992.68	–	–	–	–	–	–
x1 = 0.003	1000.41	998.79	996.01	992.86	–	–	–	–	–	–
x1 = 0.00498	1001.05	999.2	996.31	993.28	–	–	–	–	–	–
x1 = 0.00617	1001.43	999.48	996.53	993.43	–	–	–	–	–	–
x1 = 0.00706	1001.75	999.68	996.67	993.51	–	–	–	–	–	–
x1 = 0.00794	1002	999.88	996.81	993.62	–	–	–	–	–	–
x1 = 0.00892	1002.32	1000.11	996.95	993.66	–	–	–	–	–	–
x1 = 0.00993	1002.65	1000.34	997.07	993.71	–	–	–	–	–	–
x1 = 0.01492	1004.27	1001.44	997.66	993.62	–	–	–	–	–	–
x1 = 0.02056	1005.74	1002.03	997.51	993.05	–	–	–	–	–	–
x1 = 0.0238	1006.36	1002.2	997.18	992.61	–	–	–	–	–	–
x1 = 0.02697	1006.66	1002.11	997	992.19	–	–	–	–	–	–
x1 = 0.03015	1006.78	1001.94	996.61	991.64	–	–	–	–	–	–
x1 = 0.03953	1006.53	1001.04	995.23	989.79	–	–	–	–	–	–
x1 = 0.06038	1005.13	998.81	992.28	986.16	–	–	–	–	–	–
x1 = 0.07987	1003.42	996.64	989.68	983.24	–	–	–	–	–	–
x1 = 0.1	1001.67	994.55	987.21	979.73	971.95	8.644	5.684	3.974	2.914	2.216
x1 = 0.2	992.63	984.71	976.63	968.47	960.1	12.36	7.986	5.482	3.942	2.943
x1 = 0.2999	985.44	977.27	968.97	960.58	951.9	13.32	8.637	5.93	4.259	3.173
x1 = 0.4	979.51	971.27	962.91	954.51	945.89	13.06	8.55	5.913	4.27	3.195
x1 = 0.5	974.9	966.63	958.27	949.82	941.29	12.36	8.183	5.713	4.161	3.133
x1 = 0.6	971.46	963.17	954.74	946.32	937.75	11.49	7.708	5.442	3.998	3.033
x1 = 0.7	968.77	960.45	952.05	943.62	935.03	10.58	7.203	5.144	3.816	2.918
x1 = 0.7998	966.62	958.25	949.8	941.34	932.8	9.748	6.727	4.857	3.638	2.804
x1 = 0.8999	964.58	956.18	947.72	939.34	930.8	9.038	6.309	4.601	3.474	2.697
x1 = 1	962.57	954.16	945.74	937.35	928.85	8.301	5.86	4.323	3.295	2.58
